Test results as given in publication PMC10056986 (Pharmaceuticals, 2023).

Legend:
[1] = tested on: Oseltamivir-resistant influenza virus strain A/Weiss/43 (H1N1)-4; test: microbe, parasite or virus in culture; assay type: cell-based; conditions: unidentified influenza virus, H1N1, MDCK, read-out: EC50 (mean ± SD)
[2] = tested on: Oseltamivir-resistant influenza virus strain A/Weiss/43 (H1N1)-5; test: microbe, parasite or virus in culture; assay type: cell-based; conditions: unidentified influenza virus, H1N1, MDCK, read-out: EC50 (mean ± SD)
[3] = tested on: Baloxavir-resistant influenza A/PR/8/34 (H1N1) (PA I38T); assay type: cell-based, Influenza A virus; conditions: read-out: EC50 (mean ± SD)
[4] = tested on: influenza A virus with PA I38T substitution; conditions: cited from earlier work

O=C(O)[C@H]1C2CCC(CC2)[C@@H]1Nc1nc(-c2n[nH]c3ncc(F)cc23)nc(C2CC2)c1F [ZSP1273]
EC50 [1]: 0.014 ± 0.006 nM | EC50 [2]: 0.017 ± 0.004 nM | EC50 [3]: 0.028 ± 0.013 nM

O=C(O)[C@H]1C2CCC(CC2)[C@@H]1Nc1nc(-c2c[nH]c3ncc(F)cc23)ncc1F [VX-787, reference compound]
EC50 [1]: 0.234 ± 0.094 nM | EC50 [2]: 0.216 ± 0.053 nM | EC50 [3]: 0.434 ± 0.052 nM

O=C1c2c(O)c(=O)ccn2N([C@@H]2c3ccccc3SCc3c2ccc(F)c3F)[C@@H]2COCCN12 [Baloxavir]
EC50 [3]: 89.4 ± 11.9 nM | EC50 change due to PA I38T substitution [4]: 30-50 fold

CCOC(=O)C1=C[C@@H](OC(CC)CC)[C@H](NC(C)=O)[C@@H](N)C1 [Oseltamivir]
EC50 [1]: > 100000 nM | EC50 [2]: > 100000 nM
